# Patent publication US20240075036A1, “THERAPEUTIC COMBINATIONS INCLUDING INHIBITORS OF THE P2X4 RECEPTOR FOR TREATING AND PREVENTING PROLIFERATIVE DISORDERS” (CHEMOTHERAPEUTISCHES FORSCHUNGSINSTITUT GEORG-SPEYER-HAUS, priority 2021, published 2024)
# Assays:
# [1] = tested on: ectopic patient-derived colon tumor; conditions: irinotecan and AZD2014 combination; cited from earlier work
# SW480 cells = conditions: irinotecan and AZD2014 combination; orthotopic implantation; cited from earlier work
# PC3 and C4-2B4 cells = conditions: selective P2XR4 antagonists; cited from earlier work
# [2] = tested on: patient-derived tumor organoids (PDTO) from pancreatic ductal adenocarcinoma; conditions: P2X4 inhibitor 5-BDBD combined with 5-FU
# [3] = tested on: S6 ribosomal protein phosphorylation (mTOR signaling); experiment: Immunoblot analysis of survival pathways / S6 phosphorylation in AOM/DSS tumor organoids; type: cell-based, mice; conditions: ATP (100 μM) in presence of inhibitor; AOM/DSS tumor organoids
# Protocol: Data are mean±SD, n=7. *p<0.05 by two-tailed Student's t-test. c, Immunoblot analysis of Lgr5EGFP-DTR(−) tumor organoids treated with ATP (100 μM), 2MeS ADP (100 μM) and adenosine (100 μM) for 30 min. […] Data are mean±SD, n=4 replicates. […] Data are mean±SD, n=3 replicates. One representative of three experiment performed is shown. n.s. p>0,05, *p<0.05***, p<0.001, ****p<0.0001 by 1-way ANOVA with Bonferroni's multiple comparison test. 1, Immunoblot analysis of doxycycline inducible P2x4 knockdown APTAK colon tumor organoids treated with 5-FU (20 μM). Organoids were cultured in medium−/+doxycycline prior to the experiment. […] Organoids were cultured in medium−/+doxycycline prior to the experiment. […] Data are mean±SD, n=3.
# In vitro Lgr5+ cells ablation experiments, organoids were treated with 20 ng/ml DT (Millipore, #322326) in the culture medium. For human LGR5+ cells ablation, we treated LGR5-iCT organoids with 500 nM BB homodimerizer. Other treatments were performed as described in each figure legends.
# [4] = tested on: AOM/DSSATKN tumor organoids; conditions: P2x4 inhibitor in combination with 5-FU (20 μM) compared to each treatment alone; AOM/DSS tumor organoids
# Description: Percentage of reseeding capacity compared to vehicle treated organoids is indicated. Data are mean±SD, n=4 replicates. […] Percentage of reseeding capacity compared to vehicle treated organoids is indicated.
# rat P2X4 receptor = target: T1, rat P2X4 receptor (Rattus norvegicus, UniProt P51577); conditions: cited from earlier work
# T1 sequence (P51577 1-388): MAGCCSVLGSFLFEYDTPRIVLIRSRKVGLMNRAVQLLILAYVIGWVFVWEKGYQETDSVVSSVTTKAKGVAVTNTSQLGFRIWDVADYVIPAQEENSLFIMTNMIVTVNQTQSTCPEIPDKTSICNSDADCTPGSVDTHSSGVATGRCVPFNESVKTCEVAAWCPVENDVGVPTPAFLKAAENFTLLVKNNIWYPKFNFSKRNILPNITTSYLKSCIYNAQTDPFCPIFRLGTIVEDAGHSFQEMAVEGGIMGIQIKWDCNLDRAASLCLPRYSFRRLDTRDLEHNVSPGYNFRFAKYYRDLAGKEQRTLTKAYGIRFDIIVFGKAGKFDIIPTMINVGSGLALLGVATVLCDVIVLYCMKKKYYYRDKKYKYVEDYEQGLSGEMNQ
# APTAK tumor organoids = experiment: APTAK tumor organoids: S6 phosphorylation and organoid survival; type: cell-based, mice; conditions: P2x4 inhibitor in combination with 5-FU compared to each treatment alone
# Protocol: Organoids were cultured in medium−/+doxycycline prior to the experiment. […] Organoids were cultured in medium−/+doxycycline prior to the experiment.
# Colon tumor organoids were cultured as previously described (27). AOM/DSS induced colon tumors were harvested by opening the colon longitudinally and dissociated enzymatically for 30-40 min in digestion media containing 1 mg/ml collagenase I (Sigma-Aldrich), 0.5 mg/ml Dispase (Roche), 50 μg/ml DNase (Sigma-Aldrich) in RPMI medium containing 2% FCS. Supernatant was washed and filtered through a 70 μM cell strainer. Cells were then embedded in Matrigel (Corning, #356231) and cultured in Advanced Dulbecco's modified Eagle's medium/F12 (Invitrogen, #12634-028) supplemented with Glutamax (Invitrogen, #35050038), Hepes (Invitrogen, #15630056), Pen/Strep (Invitrogen, #15140122), N2 supplement (Invitrogen, #17502048), B27supplement (Invitrogen, #17504044) and n-Acetylcysteine (Sigma-Aldrich, #A91165). EGF (Invitrogen, #PMG8045), RspoI and noggin were added as niche factor.
# [5] = tested on: refractory metastatic colorectal cancer / refractory solid tumors; conditions: cited from earlier work
# [6] = tested on: advanced colorectal cancer; conditions: treatment of advanced colorectal cancer; cited from earlier work
# [7] = 24 patients with refractory metastatic colorectal cancer, everolimus combination cohorts
compound,measurement,setting,value
CNC(=O)c1cccc(-c2ccc3c(N4CCOC[C@@H]4C)nc(N4CCOC[C@@H]4C)nc3n2)c1 [AZD2014],tumor growth,[1],drastically reduced ectopic patient-derived colon tumor growth
same,liver and lung metastases,SW480 cells,totally inhibited liver and lung metastases
"O=C1CN=C(c2cccc(Br)c2)c2oc3ccccc3c2N1 [5-BDBD, 5-(3-bromophenyl)-1,3-dihydro-2H-benzofuro[3,2-e]-1,4-diazepin-2-one]","growth, mobility and apoptosis of PCa cells",PC3 and C4-2B4 cells,impaired the growth and mobility of PCa cells but not apoptosis
same,tumor organoid survival,[2],sensitizes tumor organoids to 5-FU administration and leads to reduced tumor organoid survival
same,ATP induced phosphorylation of S6,[3],reduced phosphorylation of S6 by ATP
same,organoid survival,[4],decreased organoid survival
same,antagonist action on ATP-induced currents,rat P2X4 receptor,specific P2X4R antagonist
same,organoid survival,APTAK tumor organoids,decreased organoid survival
CO[C@H]1C[C@@H]2CC[C@@H](C)[C@@](O)(O2)C(=O)C(=O)N2CCCC[C@H]2C(=O)O[C@H]([C@H](C)C[C@@H]2CC[C@@H](OCCO)[C@H](OC)C2)CC(=O)[C@H](C)/C=C(\C)[C@@H](O)[C@@H](OC)C(=O)[C@H](C)C[C@H](C)/C=C/C=C/C=C/1C [everolimus],median time on treatment,[5]; [7],2.7 months
same,patients remaining on treatment with stable disease for at least 3 months,[5]; [7],45%
same,safety and tolerability,[5]; everolimus in addition to 5-FU/LV and mFOLFOX6,appears safe and tolerable
same,clinical activity,[6],limited clinical activity
